Legend:
barnyardgrass = test: Test A pre-/postemergence greenhouse test; assay type: in vivo, Echinochloa crus-galli; conditions: for Plant response rating, Barnyardgrass: 0 to 100 scale where 0 is no effect and 100 is complete control; for Barnyardgrass plant response rating: 0 to 100 scale
How it was run: (§1)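 Seeds sown in a loam soil–sand blend got a preemergence directed soil spray of compound in a non-phytotoxic solvent mixture containing surfactant. Postemergence sprays of the same formulation went at the same time onto plants 2–10 cm tall at the one- to two-leaf stage. Injury was scored visually against untreated controls after about ten days in the greenhouse.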

giant foxtail = test: Test A pre-/postemergence greenhouse test; assay type: in vivo, Setaria faberi; conditions: for Plant response rating, Foxtail, Giant: 0 to 100 scale where 0 is no effect and 100 is complete control; for Foxtail, Giant plant response rating: 0 to 100 scale
How it was run: as §1

morningglory = test: Test A pre-/postemergence greenhouse test; assay type: in vivo, Ipomoea spp.; conditions: for Plant response rating, Morningglory: 0 to 100 scale where 0 is no effect and 100 is complete control; for Morningglory plant response rating: 0 to 100 scale
How it was run: as §1

redroot pigweed = test: Test A pre-/postemergence greenhouse test; assay type: in vivo, Amaranthus retroflexus; conditions: for Plant response rating, Pigweed: 0 to 100 scale where 0 is no effect and 100 is complete control; for Pigweed plant response rating: 0 to 100 scale
How it was run: as §1

wheat [1] = test: Test A pre-/postemergence greenhouse test; assay type: in vivo, Triticum aestivum; conditions: for Wheat plant response rating: 0 to 100 scale
How it was run: as §1

corn = test: Test A pre-/postemergence greenhouse test; assay type: in vivo, Zea mays; conditions: for Plant response rating, Corn: 0 to 100 scale where 0 is no effect and 100 is complete control; for Corn plant response rating: 0 to 100 scale
How it was run: as §1

wheat [2] = test: Test C pre-/postemergence test; assay type: in vivo, Triticum aestivum
How it was run: (§2)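 Compounds in a non-phytotoxic solvent with surfactant applied preemergence to seeded pots and, at the same time, postemergence to plants 2–18 cm tall (1- to 4-leaf stage). Paddy tests: pots flooded to 3 cm, compound applied into the water, depth held throughout.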

bermudagrass = test: Test C pre-/postemergence test; assay type: in vivo, Cynodon dactylon
How it was run: as §2

Surinam grass = test: Test C pre-/postemergence test; assay type: in vivo, Brachiaria decumbens
How it was run: as §2

crabgrass = test: Test C pre-/postemergence test; assay type: in vivo, Digitaria sanguinalis
How it was run: as §2

Goosegrass = test: Test C pre-/postemergence test; assay type: in vivo, Eleusin indica
How it was run: as §2

lambsquarters = test: Test C pre-/postemergence test; assay type: in vivo, Chenopodium album
How it was run: as §2

eastern black nightshade = test: Test C pre-/postemergence test; assay type: in vivo, Solanum ptycanthum
How it was run: as §2

pigweed = test: Test C pre-/postemergence test; assay type: in vivo, Amaranthus retroflexus
How it was run: as §2

[3] = test system: common (oilseed) sunflower; test: Test C pre-/postemergence test; assay type: in vivo, Helianthus annuus
How it was run: as §2

rice = test: Test C flooded paddy test; assay type: in vivo, Oryza sativa; conditions: Flood
How it was run: (§3)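 Ratings were visual and made relative to untreated controls after 13 to 15 greenhouse days.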

umbrella sedge = test: Test C flooded paddy test; assay type: in vivo, Cyperus difformis; conditions: Flood
How it was run: as §3

[4] = Postemergence, 500 g ai/ha, 0 is no effect, 100 is complete control
[5] = Preemergence, 125 g ai/ha, 0 no effect, 100 complete control
[6] = 62 g ai/ha, Preemergence, scale 0 to 100
[7] = 125 g ai/ha, preemergence, scale 0 (no effect) to 100 (complete control)
[8] = Preemergence, 31 g ai/ha, scale 0 to 100 (0 no effect, 100 complete control)
[9] = preemergence, 250 g ai/ha, scale 0 (no effect) to 100 (complete control)
[10] = 62 g ai/ha, scale 0 to 100 (0 no effect, 100 complete control)
[11] = 250 g ai/ha, scale 0 to 100, 0 no effect, 100 complete control, 13 to 15 days

## CC(Oc1c(C[S+]([O-])c2ccc(Cl)c[n+]2[O-])c(C(F)(F)F)nn1C)C(F)(F)F (stereo not shown) [Compound 87]
barnyardgrass; Postemergence, 125 g ai/ha
  Plant response rating, Barnyardgrass: 80
barnyardgrass; [4]
  Barnyardgrass plant response rating: 90
barnyardgrass; [5]
  Barnyardgrass plant response rating: 90
barnyardgrass; Preemergence, 500 g ai/ha
  Plant response rating, Barnyardgrass: 100
Giant foxtail; Postemergence, 125 g ai/ha
  Plant response rating, Foxtail, Giant: 90
Giant foxtail; [4]
  Foxtail, Giant plant response rating: 90
Giant foxtail; [5]
  Foxtail, Giant plant response rating: 90
Giant foxtail; Preemergence, 500 g ai/ha
  Plant response rating, Foxtail, Giant: 100
morningglory; Postemergence, 125 g ai/ha
  Plant response rating, Morningglory: 40
morningglory; [4]
  Morningglory plant response rating: 100
morningglory; [5]
  Morningglory plant response rating: 20
morningglory; Preemergence, 500 g ai/ha
  Plant response rating, Morningglory: 100
Redroot pigweed; Postemergence, 125 g ai/ha
  Plant response rating, Pigweed: 50
Redroot pigweed; [4]
  Pigweed plant response rating: 100
Redroot pigweed; [5]
  Pigweed plant response rating: 90
Redroot pigweed; Preemergence, 500 g ai/ha
  Plant response rating, Pigweed: 100
Wheat [1]; Postemergence, 125 g ai/ha, 0 to 100 scale where 0 is no effect and 100 is complete control
  Plant response rating, Wheat: 60
Wheat [1]; [4]
  Wheat plant response rating: 70
Wheat [1]; [5]
  Wheat plant response rating: 70
Wheat [1]; Preemergence, 500 g ai/ha, 0 no effect, 100 complete control
  Wheat plant response rating: 100
corn; Postemergence, 125 g ai/ha
  Plant response rating, Corn: 60
corn; [4]
  Corn plant response rating: 70
corn; [5]
  Corn plant response rating: 40
corn; Preemergence, 500 g ai/ha
  Plant response rating, Corn: 90
Wheat [2]; [6]
  Wheat plant response rating: 60
Wheat [2]; [7]
  Wheat plant response rating: 85
Wheat [2]; [8]
  Plant response rating, Wheat: 30
Wheat [2]; [9]
  Wheat plant response rating: 85
bermudagrass; 62 g ai/ha, Preemergence, scale 0 to 100 (0 no effect, 100 complete control)
  Bermudagrass plant response rating: 100
bermudagrass; [7]
  Bermudagrass plant response rating: 100
bermudagrass; [8]
  Plant response rating, Bermudagrass: 100
bermudagrass; [9]
  Bermudagrass plant response rating: 100
Surinam grass; [6]
  Surinam Grass plant response rating: 95
Surinam grass; [7]
  Surinam Grass plant response rating: 95
Surinam grass; [8]
  Plant response rating, Surinam Grass: 80
Surinam grass; [9]
  Surinam Grass plant response rating: 98
crabgrass; [6]
  Crabgrass, Large plant response rating: 95
crabgrass; [7]
  Crabgrass, Large plant response rating: 100
crabgrass; [8]
  Plant response rating, Crabgrass, Large: 80
crabgrass; [9]
  Crabgrass, Large plant response rating: 100
Goosegrass; [6]
  Goosegrass plant response rating: 100
Goosegrass; [7]
  Goosegrass plant response rating: 100
Goosegrass; [8]
  Plant response rating, Goosegrass: 98
Goosegrass; [9]
  Goosegrass plant response rating: 100
lambsquarters; [6]
  Lambsquarters plant response rating: 85
lambsquarters; [7]
  Lambsquarters plant response rating: 100
lambsquarters; [8]
  Plant response rating, Lambsquarters: 60
lambsquarters; [9]
  Lambsquarters plant response rating: 100
Eastern black nightshade; [6]
  Nightshade plant response rating: 80
Eastern black nightshade; [7]
  Nightshade plant response rating: 95
Eastern black nightshade; [8]
  Plant response rating, Nightshade: 80
Eastern black nightshade; [9]
  Nightshade plant response rating: 100
pigweed; [6]
  Pigweed plant response rating: 75
pigweed; [7]
  Pigweed plant response rating: 95
pigweed; [8]
  Plant response rating, Pigweed: 10
pigweed; [9]
  Pigweed plant response rating: 100
[3]; [6]
  Sunflower plant response rating: 50
[3]; [7]
  Sunflower plant response rating: 55
[3]; [8]
  Plant response rating, Sunflower: 40
[3]; [9]
  Sunflower plant response rating: 70
rice; [10]
  Plant response rating, Rice: 30
rice; [11]
  Plant response rating, Rice: 90
Umbrella sedge; [10]
  Plant response rating, Sedge, Umbrella: 60
Umbrella sedge; [11]
  Plant response rating, Sedge, Umbrella: 95

Reference: US20100298141A1, “SUBSTITUTED PYRIDINE N-OXIDE HERBICIDES” (E. I. DU PONT DE NEMOURS AND COMPANY, priority 2007, published 2010)
